Earlier results on 1 compound are cited in patent publication US5834251A, “Methods of modifying carbohydrate moieties” (Alko Group Ltd., priority 1994, dated 1998).

For the data set, the target named is α-2,6 Sialyltransferase, EC 2.4.99.1, from rat liver (Rattus norvegicus, UniProt P13721). The settings on record: read-out: Km for the sugar donor CMP-NeuAc; commercially available enzyme, such as that from rat liver.
Chain of α-2,6 Sialyltransferase, EC 2.4.99.1, from rat liver (P13721 whole entry): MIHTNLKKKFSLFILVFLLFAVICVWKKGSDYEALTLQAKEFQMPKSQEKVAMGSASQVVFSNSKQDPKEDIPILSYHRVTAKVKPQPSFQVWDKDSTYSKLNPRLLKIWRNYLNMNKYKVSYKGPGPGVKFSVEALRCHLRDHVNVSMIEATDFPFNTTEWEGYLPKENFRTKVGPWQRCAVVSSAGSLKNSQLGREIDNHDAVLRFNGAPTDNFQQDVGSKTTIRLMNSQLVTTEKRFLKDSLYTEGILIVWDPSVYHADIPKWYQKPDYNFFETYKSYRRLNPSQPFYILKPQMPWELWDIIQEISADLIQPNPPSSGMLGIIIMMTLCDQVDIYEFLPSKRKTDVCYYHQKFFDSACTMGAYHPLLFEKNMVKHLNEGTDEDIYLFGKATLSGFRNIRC

As to `CC(=O)NC1C(O)CC(OP(=O)(O)OCC2OC(n3ccc(N)nc3=O)C(O)C2O)(C(=O)O)OC1C(O)C(O)CO` (stereo not shown) [CMP-NeuAc, CMP-N-acetylneuraminic acid], the Km was 85 µM.
